What was measured:
CGR8 mouse ES cells = experiment: Secondary screening assay: neuronal differentiation of mouse ES cells, total neurite outgrowth; type: cell-based; conditions: 5 days with compound in SR medium, then 4 days N2 medium without compound; vs control cells
Description: To perform the secondary screening assay, neuronal differentiation of CGR8 cells was carried out in SR medium (DMEM high glucose supplemented with 15% KO serum (Gibco), non-essential amino acids, penicillin and streptomycin). Cells were plated at 10^5 cells per 10 cm cell culture dish and maintained is SR medium for 5 days with compounds found in the primary screen. Cells were subsequently dissociated and replated at 4×10^4 cells/cm^2 in N2 medium (DMEM high glucose, N2 supplement, 10 ng/ml basic fibroblast growth factor, penicillin and streptomycin) and cultured for four additional days without compound addition. Immunostaining quantification. Immunostaining and nuclear staining quantifications were performed using the MetaXpress software (Molecular devices). Total neurite outgrowth was quantified using the neurite outgrowth analysis module, and total cell numbers were quantified with the count nuclei analysis module. For further studies, 32 compounds were selected with high Fluc/Rluc ratio. A dose-response analysis of Fluc/Rluc ratio was performed in the same conditions as used for the primary screen, using concentrations ranging from 100 nM to 100 μM. […] The amounts of neurons were quantified by calculating total neurite outgrowth identified by β3-tubulin immunoreactivity using an automated imaging system (see Methods above).

HS401 human ES cells = experiment: Differentiation protocol 2 in HS401 cell line; type: cell-based; conditions: 3 μM vs DMSO
Description: Two different protocols were used to induce neuronal differentiation of human ES cells. In the first protocol, human ES cells were mechanically dissociated into small aggregates and plated on laminin/polyornithine coated six-well plates. Cells were cultured 2 weeks in human SR medium (DMEM F-12 supplemented with 15% knockout serum (Gibco), non-essential amino acids, penicillin and streptomycin), followed by 4 weeks in N2 medium. Compounds were added throughout these first 6 weeks. Subsequently, cells were mechanically dissociated and replated on polyornithine/laminin-coated 6 well plates. Throughout the text, this first differentiation protocol will be referred to as “differentiation protocol 1”. The second differentiation protocol was derived from previously described differentiation conditions (Nat et al., 2007). In the second differentiation protocol, undifferentiated human ES cells were mechanically dissociated into small aggregates and cultured in suspension on low-attachment six-well plates. For the first 4 days, they were cultured in neuronal induction medium (DMEM F-12, N2 supplement, penicillin and streptomycin), which was changed to simple neuronal proliferation medium (DMEM F-12, N2 supplement, 20 ng/ml bFGF, penicillin and streptomycin) for 2 additional days. […]

H1 ES cells = experiment: Real Time PCR of neural and non-neural markers during differentiation protocol 2; type: cell-based, human; conditions: 3 μM
Description: Real Time PCR. Reactions were run on an ABI Prism 7900 HT detection system (Applied Biosystems). ALAS and GusB were used as housekeeping genes. […] Sequences of the primers are shown in supplementary table.
The kinetics of emergence of neural and non-neural markers in DMSO and 3 μM phenazopyridine-treated H1 ES cells were evaluated using real time PCR. […] Expression of non-neural markers was next evaluated. […] The inventors reasoned that the persistence of these markers could be temporary and therefore investigated their expression after four weeks of differentiation.

## Nc1ccc(/N=N/c2ccccc2)c(N)n1 [phenazopyridine]
CGR8 mouse ES cells
  total neurite outgrowth identified by β3-tubulin immunoreactivity: increase of total neurite outgrowth as compared to control cells
HS401 human ES cells
  morphology and dissociation observations in HS401 cell line: confirmed
H1 ES cells; 2 weeks
  expression of Oct-4 and brachyury: increased
  expression of forebrain (Mash1) and ventral hindbrain (Nkx2.2, HoxB4, Olig2) markers: also upregulated
  expression of α-fetoprotein (AFP): did not vary between both conditions
H1 ES cells; 2 weeks of differentiation, vs control
  expression of early (Pax6, nestin), intermediate (β3-tubulin, vimentin) and late (β3-tubulin, Map2) neuronal differentiation markers: upregulation
H1 ES cells; 4 weeks of differentiation
  expression of the same neural markers at 4 weeks: significant differences in the expression of the same markers at 4 weeks of differentiation were not observed
H1 ES cells; four weeks of differentiation
  downregulation of Oct4: > 1000 fold
  downregulation of brachyury: > 10 fold
  downregulation of α-fetoprotein: > 1000 fold

Source: patent publication US8609413B2, “Neurons, astrocytes and oligodendrocytes differentiated from a mammalian pluripotent or neural stem cells exposed to a pyridine deriviative” (Research Development Foundation, priority 2007, dated 2013)
